According to ChEMBL document CHEMBL5696442, “Discovery of type II inhibitors of TGFβ-activated kinase 1 (TAK1) and mitogen-activated protein kinase kinase kinase kinase 2 (MAP4K2)” (J Med Chem, 2015):
The source made the active and inactive calls. The calls are words filed in the database; no cut-off is given here.

Assays:
[1] = molecular target: Calcium/calmodulin-dependent protein kinase type II subunit gamma (Homo sapiens) (UniProt Q13555); experiment: Inhibition of CaMK2g Lys1 labeling site harbouring KTSTQEYAAKIINTK in human Huh-7 cell lysate at 1 uM by KiNativ Profiling analysis relative to control; assay type: subcellular
[2] = molecular target: Phosphatidylinositol 4,5-bisphosphate 3-kinase catalytic subunit beta isoform (Homo sapiens) (UniProt P42338); experiment: Inhibition of PIK3CB ATP labeling site harbouring VFGEDSVGVIFKNGDDLR in human Huh-7 cell lysate at 1 uM by KiNativ Profiling analysis relative to control; assay type: subcellular
[3] = molecular target: Mitogen-activated protein kinase kinase kinase 4 (Homo sapiens) (UniProt Q9Y6R4); experiment: Inhibition of MAP3K4 Lys2 labeling site in human Huh-7 cells at 1 uM by KiNativ Profiling analysis relative to control; assay type: cell-based
[4] = molecular target: Cyclin-dependent kinase 17 (Homo sapiens) (UniProt Q00537); experiment: Inhibition of PCTAIRE2 Lys2 labeling site harbouring DLKPQNLLINEKGELKLADFGLAR in human Huh-7 cells at 1 uM by KiNativ Profiling analysis relative to control; assay type: cell-based
[5] = molecular target: AP2-associated protein kinase 1 (Homo sapiens) (UniProt Q2M2I8); experiment: Inhibition of AAK1 (unknown origin) at 1 uM by Ambit Kinomescan binding assay relative to control
[6] = molecular target: Mitogen-activated protein kinase kinase kinase 11 (Homo sapiens) (UniProt Q16584); experiment: Inhibition of MLK3 Lys2 labeling site in human A-375 cells at 0.05 uM by KiNativ Profiling analysis relative to control; assay type: cell-based
[7] = molecular target: Dual specificity protein kinase CLK1 (Homo sapiens) (UniProt P49759); experiment: Inhibition of CLK1 (unknown origin) at 1 uM by Ambit Kinomescan binding assay relative to control; values are per cent of control
[8] = molecular target: Cyclin-dependent kinase 11A (Homo sapiens) (UniProt Q9UQ88); experiment: Inhibition of CDC2L2 (unknown origin) at 1 uM by Ambit Kinomescan binding assay relative to control; values are per cent of control
[9] = system: Receptor-type tyrosine-protein kinase FLT3 (Homo sapiens), P36888 [N841I]; experiment: Inhibition of FLT3 N841I mutant (unknown origin) at 10 uM by Ambit Kinomescan binding assay relative to control
[10] = molecular target: Phosphatidylinositol 4,5-bisphosphate 3-kinase catalytic subunit alpha isoform (Homo sapiens) (UniProt P42336); experiment: Inhibition of PIK3CA (unknown origin) at 10 uM by Ambit Kinomescan binding assay
[11] = molecular target: Dual specificity testis-specific protein kinase 1 (Homo sapiens) (UniProt Q15569); experiment: Inhibition of TESK1 (unknown origin) at 10 uM by Ambit Kinomescan binding assay
[12] = molecular target: T1, Mitogen-activated protein kinase kinase kinase 2 (Homo sapiens) (UniProt Q9Y2U5); experiment: Inhibition of MAP3K2 Lys2 labeling site in human A-375 cells at 0.05 uM by KiNativ Profiling analysis relative to control; assay type: cell-based
T1 sequence (whole entry): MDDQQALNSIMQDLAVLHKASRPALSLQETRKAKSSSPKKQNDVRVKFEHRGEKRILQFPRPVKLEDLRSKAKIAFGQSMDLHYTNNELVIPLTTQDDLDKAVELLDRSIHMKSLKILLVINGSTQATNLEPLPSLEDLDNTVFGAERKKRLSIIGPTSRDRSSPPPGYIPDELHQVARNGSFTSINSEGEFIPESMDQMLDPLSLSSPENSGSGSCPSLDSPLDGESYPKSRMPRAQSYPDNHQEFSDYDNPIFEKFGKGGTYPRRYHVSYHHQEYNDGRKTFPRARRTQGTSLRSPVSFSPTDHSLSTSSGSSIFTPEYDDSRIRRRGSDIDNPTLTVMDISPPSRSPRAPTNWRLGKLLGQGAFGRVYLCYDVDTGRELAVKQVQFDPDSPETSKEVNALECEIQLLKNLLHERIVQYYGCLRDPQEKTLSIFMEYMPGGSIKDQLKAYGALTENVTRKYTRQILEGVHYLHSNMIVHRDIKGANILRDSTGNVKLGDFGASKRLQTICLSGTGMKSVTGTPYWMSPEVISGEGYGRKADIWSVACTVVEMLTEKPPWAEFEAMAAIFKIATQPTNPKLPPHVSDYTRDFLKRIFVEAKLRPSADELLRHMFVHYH

[13] = molecular target: T2, Serine/threonine-protein kinase TAO1 (Homo sapiens) (UniProt Q7L7X3); experiment: Inhibition of TAOK1 (unknown origin) at 10 uM by Ambit Kinomescan binding assay relative to control; values are per cent of control
T2 sequence (whole entry): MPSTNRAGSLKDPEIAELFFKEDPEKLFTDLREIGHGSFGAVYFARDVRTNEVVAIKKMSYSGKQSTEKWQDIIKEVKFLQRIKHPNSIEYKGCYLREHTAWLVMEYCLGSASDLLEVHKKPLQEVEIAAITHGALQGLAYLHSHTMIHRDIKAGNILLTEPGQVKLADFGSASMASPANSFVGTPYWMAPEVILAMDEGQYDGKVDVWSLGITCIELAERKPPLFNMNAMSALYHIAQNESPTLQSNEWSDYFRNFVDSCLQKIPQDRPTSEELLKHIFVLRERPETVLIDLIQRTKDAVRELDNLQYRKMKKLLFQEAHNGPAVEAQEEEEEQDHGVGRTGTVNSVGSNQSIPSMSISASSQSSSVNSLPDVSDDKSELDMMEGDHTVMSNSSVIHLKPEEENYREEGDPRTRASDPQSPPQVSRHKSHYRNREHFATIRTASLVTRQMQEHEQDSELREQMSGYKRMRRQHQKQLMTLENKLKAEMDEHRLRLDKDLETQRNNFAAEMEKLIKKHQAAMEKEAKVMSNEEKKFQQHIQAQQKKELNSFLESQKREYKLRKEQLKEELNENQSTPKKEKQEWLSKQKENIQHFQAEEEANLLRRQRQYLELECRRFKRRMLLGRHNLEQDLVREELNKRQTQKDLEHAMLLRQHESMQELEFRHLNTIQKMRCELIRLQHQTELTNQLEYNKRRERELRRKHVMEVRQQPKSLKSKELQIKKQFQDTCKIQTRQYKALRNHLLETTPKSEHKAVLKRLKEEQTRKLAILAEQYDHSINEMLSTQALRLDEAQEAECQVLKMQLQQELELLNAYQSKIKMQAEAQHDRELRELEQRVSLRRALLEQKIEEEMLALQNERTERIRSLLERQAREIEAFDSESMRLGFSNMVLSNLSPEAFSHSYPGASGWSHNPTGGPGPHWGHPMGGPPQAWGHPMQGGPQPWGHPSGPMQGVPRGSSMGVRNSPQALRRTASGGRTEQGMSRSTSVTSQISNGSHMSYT

Dual specificity protein kinase CLK1 (Homo sapiens), sequence (P49759 whole entry, looked up): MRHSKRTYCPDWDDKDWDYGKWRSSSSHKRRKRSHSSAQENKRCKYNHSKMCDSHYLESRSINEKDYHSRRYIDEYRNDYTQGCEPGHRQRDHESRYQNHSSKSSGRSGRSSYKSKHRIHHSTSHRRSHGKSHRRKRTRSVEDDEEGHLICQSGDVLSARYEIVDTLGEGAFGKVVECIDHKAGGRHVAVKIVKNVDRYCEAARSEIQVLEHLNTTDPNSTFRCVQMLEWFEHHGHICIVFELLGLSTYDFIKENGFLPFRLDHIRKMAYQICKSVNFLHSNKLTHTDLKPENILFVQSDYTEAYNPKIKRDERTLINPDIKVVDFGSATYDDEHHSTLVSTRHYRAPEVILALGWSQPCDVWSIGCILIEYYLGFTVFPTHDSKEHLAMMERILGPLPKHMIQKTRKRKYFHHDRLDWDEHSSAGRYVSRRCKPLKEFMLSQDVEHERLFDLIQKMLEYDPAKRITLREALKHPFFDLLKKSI
Phosphatidylinositol 4,5-bisphosphate 3-kinase catalytic subunit alpha isoform (Homo sapiens), sequence (P42336 whole entry, canonical isoform): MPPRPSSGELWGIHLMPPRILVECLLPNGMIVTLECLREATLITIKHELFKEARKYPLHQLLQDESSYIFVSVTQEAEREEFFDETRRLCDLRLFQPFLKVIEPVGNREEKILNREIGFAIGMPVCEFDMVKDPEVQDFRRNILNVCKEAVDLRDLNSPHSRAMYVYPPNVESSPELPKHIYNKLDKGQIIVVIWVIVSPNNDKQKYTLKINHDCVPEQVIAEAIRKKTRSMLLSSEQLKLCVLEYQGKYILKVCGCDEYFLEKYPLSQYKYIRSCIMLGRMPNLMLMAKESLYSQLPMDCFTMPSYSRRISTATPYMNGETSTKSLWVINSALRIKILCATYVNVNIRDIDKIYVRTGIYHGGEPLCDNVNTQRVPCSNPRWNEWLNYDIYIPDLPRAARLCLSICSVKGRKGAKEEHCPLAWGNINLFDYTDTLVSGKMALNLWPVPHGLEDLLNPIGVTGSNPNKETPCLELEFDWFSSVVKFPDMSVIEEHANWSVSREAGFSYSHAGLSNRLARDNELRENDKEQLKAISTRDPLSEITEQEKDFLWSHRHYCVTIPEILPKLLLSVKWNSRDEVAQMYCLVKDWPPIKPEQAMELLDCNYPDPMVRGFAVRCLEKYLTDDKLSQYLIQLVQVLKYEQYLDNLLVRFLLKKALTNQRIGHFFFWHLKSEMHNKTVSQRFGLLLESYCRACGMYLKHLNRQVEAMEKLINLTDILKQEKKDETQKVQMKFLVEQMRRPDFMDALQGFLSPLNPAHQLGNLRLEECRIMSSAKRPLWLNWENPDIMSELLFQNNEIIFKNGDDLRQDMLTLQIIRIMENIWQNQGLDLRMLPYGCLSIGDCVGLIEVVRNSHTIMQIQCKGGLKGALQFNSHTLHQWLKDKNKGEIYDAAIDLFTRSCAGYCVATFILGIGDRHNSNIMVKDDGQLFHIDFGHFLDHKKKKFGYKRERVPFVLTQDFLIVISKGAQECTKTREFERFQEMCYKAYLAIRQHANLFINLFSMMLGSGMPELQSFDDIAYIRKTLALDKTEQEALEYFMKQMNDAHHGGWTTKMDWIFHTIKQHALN
AP2-associated protein kinase 1 (Homo sapiens), sequence (Q2M2I8 whole entry, looked up): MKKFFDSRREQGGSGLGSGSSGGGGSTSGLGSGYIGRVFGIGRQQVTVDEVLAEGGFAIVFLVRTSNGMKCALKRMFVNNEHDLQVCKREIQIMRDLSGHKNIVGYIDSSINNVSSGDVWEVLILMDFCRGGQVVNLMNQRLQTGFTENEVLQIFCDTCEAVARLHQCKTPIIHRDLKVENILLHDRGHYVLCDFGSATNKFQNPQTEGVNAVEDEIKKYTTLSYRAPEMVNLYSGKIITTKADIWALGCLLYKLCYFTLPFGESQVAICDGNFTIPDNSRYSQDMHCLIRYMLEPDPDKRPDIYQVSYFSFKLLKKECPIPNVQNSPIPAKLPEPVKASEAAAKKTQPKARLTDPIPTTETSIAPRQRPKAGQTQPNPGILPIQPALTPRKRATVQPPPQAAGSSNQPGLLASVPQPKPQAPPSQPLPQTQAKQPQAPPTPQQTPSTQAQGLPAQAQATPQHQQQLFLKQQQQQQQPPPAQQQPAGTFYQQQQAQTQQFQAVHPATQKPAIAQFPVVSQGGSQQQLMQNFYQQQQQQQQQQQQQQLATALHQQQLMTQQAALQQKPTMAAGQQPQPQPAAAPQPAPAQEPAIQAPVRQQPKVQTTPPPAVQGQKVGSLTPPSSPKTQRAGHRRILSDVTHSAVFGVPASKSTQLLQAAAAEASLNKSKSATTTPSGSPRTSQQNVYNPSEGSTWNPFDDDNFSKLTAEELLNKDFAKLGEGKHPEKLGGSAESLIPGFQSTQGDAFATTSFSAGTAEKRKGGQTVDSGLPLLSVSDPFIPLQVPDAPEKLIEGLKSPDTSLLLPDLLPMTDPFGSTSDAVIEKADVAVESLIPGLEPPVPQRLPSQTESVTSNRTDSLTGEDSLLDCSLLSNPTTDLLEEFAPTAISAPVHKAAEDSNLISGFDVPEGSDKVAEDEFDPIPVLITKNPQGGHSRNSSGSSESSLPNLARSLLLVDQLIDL
Calcium/calmodulin-dependent protein kinase type II subunit gamma (Homo sapiens), sequence (Q13555 whole entry, canonical isoform): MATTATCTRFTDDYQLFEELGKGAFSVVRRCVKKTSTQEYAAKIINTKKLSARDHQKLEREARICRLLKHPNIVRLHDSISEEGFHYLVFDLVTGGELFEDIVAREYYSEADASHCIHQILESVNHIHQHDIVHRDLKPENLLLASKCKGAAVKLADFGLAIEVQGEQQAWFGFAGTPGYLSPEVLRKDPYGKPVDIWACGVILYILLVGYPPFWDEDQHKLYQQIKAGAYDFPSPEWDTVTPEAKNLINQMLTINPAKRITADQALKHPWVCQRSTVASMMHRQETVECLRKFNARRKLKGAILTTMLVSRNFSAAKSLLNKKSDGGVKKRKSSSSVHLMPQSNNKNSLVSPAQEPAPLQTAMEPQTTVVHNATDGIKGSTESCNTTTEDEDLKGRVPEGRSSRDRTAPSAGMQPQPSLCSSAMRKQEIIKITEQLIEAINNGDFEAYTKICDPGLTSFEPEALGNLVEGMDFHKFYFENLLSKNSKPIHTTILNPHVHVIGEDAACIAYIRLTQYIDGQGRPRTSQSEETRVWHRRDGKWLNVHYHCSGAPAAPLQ
Cyclin-dependent kinase 11A (Homo sapiens), sequence (Q9UQ88 whole entry): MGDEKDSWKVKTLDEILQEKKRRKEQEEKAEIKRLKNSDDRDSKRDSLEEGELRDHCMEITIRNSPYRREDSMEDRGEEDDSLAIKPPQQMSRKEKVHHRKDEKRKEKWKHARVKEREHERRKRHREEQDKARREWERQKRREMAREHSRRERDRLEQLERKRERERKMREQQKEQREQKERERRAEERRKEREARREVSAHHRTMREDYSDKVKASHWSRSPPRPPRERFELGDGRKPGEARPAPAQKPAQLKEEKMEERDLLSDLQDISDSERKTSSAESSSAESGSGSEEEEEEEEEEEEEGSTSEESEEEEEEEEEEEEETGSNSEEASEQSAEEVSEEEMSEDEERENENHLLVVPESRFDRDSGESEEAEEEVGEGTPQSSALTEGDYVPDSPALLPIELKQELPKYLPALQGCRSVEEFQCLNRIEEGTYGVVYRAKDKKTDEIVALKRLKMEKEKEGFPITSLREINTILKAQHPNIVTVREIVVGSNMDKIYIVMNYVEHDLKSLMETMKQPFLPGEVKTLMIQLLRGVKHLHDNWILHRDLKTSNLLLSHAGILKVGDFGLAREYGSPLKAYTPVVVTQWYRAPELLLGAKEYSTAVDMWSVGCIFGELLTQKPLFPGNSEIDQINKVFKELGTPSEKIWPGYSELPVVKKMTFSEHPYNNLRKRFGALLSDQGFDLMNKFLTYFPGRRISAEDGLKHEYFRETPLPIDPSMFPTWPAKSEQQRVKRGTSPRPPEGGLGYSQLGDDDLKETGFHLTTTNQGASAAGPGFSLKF
Phosphatidylinositol 4,5-bisphosphate 3-kinase catalytic subunit beta isoform (Homo sapiens), sequence (P42338 whole entry, looked up, canonical isoform): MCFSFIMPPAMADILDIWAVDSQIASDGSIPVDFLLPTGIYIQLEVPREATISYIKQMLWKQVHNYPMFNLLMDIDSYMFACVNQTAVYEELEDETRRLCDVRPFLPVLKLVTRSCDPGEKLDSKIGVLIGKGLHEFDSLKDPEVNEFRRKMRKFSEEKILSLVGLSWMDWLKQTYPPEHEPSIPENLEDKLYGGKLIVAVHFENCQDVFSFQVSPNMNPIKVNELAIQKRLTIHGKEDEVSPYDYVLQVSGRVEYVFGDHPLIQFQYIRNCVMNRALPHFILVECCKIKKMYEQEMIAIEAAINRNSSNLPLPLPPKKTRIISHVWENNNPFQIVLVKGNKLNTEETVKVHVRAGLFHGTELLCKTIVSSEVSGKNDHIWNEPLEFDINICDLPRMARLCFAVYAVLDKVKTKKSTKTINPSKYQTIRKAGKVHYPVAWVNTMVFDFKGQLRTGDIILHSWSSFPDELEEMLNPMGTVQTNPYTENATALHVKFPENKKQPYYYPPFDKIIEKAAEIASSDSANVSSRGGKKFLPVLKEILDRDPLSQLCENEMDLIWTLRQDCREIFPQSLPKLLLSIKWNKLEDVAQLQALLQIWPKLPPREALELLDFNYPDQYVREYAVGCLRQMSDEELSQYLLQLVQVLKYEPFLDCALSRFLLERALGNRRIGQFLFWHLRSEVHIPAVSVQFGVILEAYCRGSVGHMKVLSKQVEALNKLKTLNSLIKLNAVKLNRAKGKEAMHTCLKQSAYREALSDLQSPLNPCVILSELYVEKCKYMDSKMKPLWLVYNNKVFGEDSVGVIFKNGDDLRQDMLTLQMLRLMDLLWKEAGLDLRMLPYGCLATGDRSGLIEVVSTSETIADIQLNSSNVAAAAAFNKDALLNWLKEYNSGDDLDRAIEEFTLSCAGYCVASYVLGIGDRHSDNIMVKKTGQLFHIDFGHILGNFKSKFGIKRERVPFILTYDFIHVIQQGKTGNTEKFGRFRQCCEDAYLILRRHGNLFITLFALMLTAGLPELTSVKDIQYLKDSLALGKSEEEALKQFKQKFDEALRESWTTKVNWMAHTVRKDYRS

In the case of CNc1cc(Oc2cc(C(=O)Nc3cc(N4CCN(C)CC4)cc(C(F)(F)F)c3)ccc2C)ncn1, the inhibition [1] is reported as 6.9%, the inhibition [2] is reported as -1.3% and the inhibition [3] is reported as 77%. It also gave an inhibition [4] of -9.1%.

Work on CCN1CCN(Cc2ccc(NC(=O)c3ccc(C)c(/C=C/c4cnc5[nH]ccc5c4OC)c3)cc2C(F)(F)F)CC1 yielded an inhibition [5] of 67%, an inhibition [6] of 11.4% and a residual activity [7] of 59%. The residual activity [8] was 70%.

For CCN1CCN(Cc2ccc(NC(=O)c3ccc(C)c(Oc4ccnc5[nH]ccc45)c3)cc2C(F)(F)F)CC1, the inhibition [9] was 0%, the inhibition [10] was “inactive” and the inhibition [11] was “inactive”. It also gave an inhibition [12] of 7.6% and a residual activity [13] of 3%.
